Measured values published in patent US20070275935A1, “Estratriene Derivatives” (priority 2003, published 2007).

Tests used:
HASM cells [1] = experiment: Shape of HASM cells in the presence of thrombin; format: cell-based, human; settings: thrombin 0.3 U/mL, 48 h
Protocol: The effects of 2MEO and 4NOM on the shape of HASM in the presence thrombin (0.3 U/mL) was investigated. Analogues were pre-incubated with HASM for 30 min before the addition of thrombin. The incubation continued for 48 h before capturing images of the HASM.

HASM cells [2] = experiment: PDGF(BB)-induced migration of HASM cells (modified Boyden chamber); format: cell-based, human; settings: PDGF(BB) 1 ng/ml, 5 h, 30 min pre-treatment
Protocol: Costar transwell culture inserts (Corning Inc, USA) with 6.5 mm diameter and […] were coated overnight at 4° C. with 0.1% gelatin (Bovine skin; Sigma, USA) prior to the commencement of the assay (modified Boyden chamber assay). HASM cells were deprived of serum for 24 h prior to the commencement of the assay. Cells were added to the upper side of the transwell inserts with or without 30 min pre-treatment with one of the test compounds. Platelet-derived growth factor(BB) (1 ng/ml) was added to the lower compartment to stimulate cell migration and the chambers and cells left for 5 h. After this period the membranes with the adherent cells were washed with PBS, and fixed for 2 min with DiffQuick (Lab Aids, Aus) fixative and then stained with DiffQuick. Membranes were then washed twice in PBS, peeled off the inserts and placed onto slides. Membranes were visualised by light microscopy, and the number of migrated cells in five fields (×400) were counted in triplicate.
The numbers of HASM appearing on the underside of the porous membrane was counted and the responses were expressed as a percentage of the number of cells migrating in response to PDGF in the absence of pre-treatment.

[3] = target: colchicine binding site on tubulin; experiment: Colchicine displacement assay on partially purified tubulin; settings: partially purified lamb brain tubulin, 1 μM 3H colchicine
Protocol: For the binding assays, a partial purification of tubulin was derived from the polymerization-depolymerization method of Williams and Lee (Williams et al., 1982). Three lamb brains (approximately 150 g total) were obtained approximately fifteen minutes after slaughter. Batches of 100g of brain were homogenized in 50 mL cold PM4M buffer (100 mM piperazine-N,N′-bis[2-ethane sulfonic acid] (PIPES), 1 mM MgSO4, 2 mM ethylene glycol tetra-acetate (EGTA), 2 mM DTT, 4 M glycerol, pH 6.9) using a domestic blender (Power Blender, Ronson) on the highest setting for 30 s. The crude homogenate was centrifuged for 15 mins (9000 rpm (6500×g), 4° C.) and the precipitate (cell debris, extracellular matrix and crude nuclear fraction) discarded. The 6500×g supernatant was then centrifuged for 75 mins (28 000 rpm (96 000×g), 4° C.) and the precipitate (consisting largely of cell membranes) was discarded.
The GTP (guanosine triphosphate) concentration of the 96 000×g supernatant was adjusted to 1 mM by the addition of an appropriate amount of a freshly prepared solution of 50 mM GTP in distilled water. […]
Reaction mixtures were incubated for 30 mins at 37° C. in a water bath, followed by cold stabilization on ice for 1 to 1.5 hours. […] 5 ml “Emulsifier Safe” scintillation fluid (Packard) was added to each tube, and the samples counted in a Packard 1600TR liquid scintillation analyzer.

[4] = test system: Human airway smooth muscle (HASM) cells; experiment: bFGF-induced proliferation of human airway smooth muscle (HASM) cells, cell number after 48 h; format: cell-based; settings: bFGF 300 pM, mean ± SEM (n), without analogue 135.8 ± 3.7
Protocol: Human airway smooth muscle (HASM) cells were cultured from macroscopically normal bronchi (0.5-2 cm diameter) obtained from lung resection or heart-lung transplant specimens provided by the Alfred Hospital (Melbourne) according to methods published in detail previously (Fernandes et al., 1999).
Approximately 0.1 g of smooth muscle was stripped from the wall of the bronchus for each cell culture. Dissected tissue was immersed in Dulbecco's modified Eagle's medium (DMEM) (Flow Laboratories, Scotland), supplemented with 100 U/mL penicillin G (CSL, Australia) and 100 ug/mL streptomycin (CSL, Australia). The tissue was rinsed in phosphate buffered saline (PBS; Oxoid, England) and the airway smooth muscle was chopped into 2 mm^3 pieces and digested for 2 hours in DMEM containing elastase (0.5 mg/mL: Worthington Biochemical, USA) followed by a 12 hour incubation in DMEM containing collagenase (1 mg/mL) (Worthington Biochemical, USA), at 37° C. with agitation.
The resulting cell suspension was centrifuged and washed three times in phosphate buffered saline (PBS). Following the last centrifugation step, the cells were resuspended in 25 mL of DMEM supplemented with L-glutamine (2 mM: Sigma, USA), penicillin G (100 U/mL), streptomycin (100 μg/mL), amphotericin B (2 μg/mL: Wellcome, UK) and heat-inactivated FCS (10% v/v: CSL, Australia) and seeded into 25 cm^2 culture flasks. The primary isolates were incubated for 7 to 14 days to reach confluence.
Cells were harvested weekly by 10 min exposure to trypsin (0.5%: CSL, Australia) and EDTA (1 mM in PBS: BDH, Australia) and passaged at a 1:3 ratio into 75 cm^2 flasks.
The activity of the compounds has been established in cell culture by exploring their effects on mitogen-induced increases in cell number. […]
Data are expressed as a percentage of the cell number in vehicle treated wells and are presented as the mean and standard error of the mean.

[5] = test system: bovine aortic endothelial cells (BAEC); experiment: Proliferation of bovine aortic endothelial cells in response to 5% FCS; format: cell-based
Protocol: The effects of 4NO were evaluated in a number of non-smooth muscle cell types including the type II airway epithelial cell line, A549 (ATCC accession number ATCC CCL-185 Lung carcinoma human) (FIG. 2); the human breast tumour cell line, MCF7, (ATTC accession number ATCC HTB-22 breast adenocarcinoma, human) which expresses the estrogen receptor (FIG. 3); and in bovine aortic endothelial cells (BAEC) (FIG. 4).
The effects of test compounds were examined on proliferation of A549 cells in response to 5% fetal calf serum (FCS). Analogues were pre-incubated with A549 cells for 30 min before the addition of FCS. The incubation continued for 48 h before cell enumeration. Data are expressed as a percentage of the cell number in vehicle treated wells and are presented as the mean and standard error of the mean. Similarly the effects of 2MEO and 4NO on proliferation of MCF7 in response to 5% FCS or epidermal growth factor (EGF, 300 pM) were examined, as were the effects of 2MEO and 4NO on proliferation of BAEC in response to 5% FCS. The incubation parameters were the same as described above and results are presented as the mean and standard error of the mean.

NIH3T3 cells = experiment: Thrombin-induced proliferation of NIH3T3 cells; format: cell-based; settings: concentration not given

| SMILES | effect on the shape of HASM cells (HASM cells [1]; 1 μM) | migration in response to PDGF (HASM cells [2]) | Tubulin affinity (pIC50 ^3H-colchicine displacement) [3] | Cell number (% control) bFGF ([4]; analogue 1 μM) | effect on proliferation of BAEC, in words (FIG. 4) ([5]; concentrations below 3 μM) | inhibitory effect on thrombin-induced proliferation (NIH3T3 cells) [%] | effect on the shape of HASM cells (HASM cells [1]; 10 μM) | Cell number (% control) bFGF ([4]; analogue 10 μM) | effect on proliferation of BAEC, in words (FIG. 4) ([5]; concentration not given) |
| --- | --- | --- | --- | --- | --- | --- | --- | --- | --- |
| COc1cc2c(cc1O)C(=NOCc1ccc([N+](=O)[O-])cc1)C[C@@H]1[C@@H]2CC[C@]2(C)[C@@H](O)CC[C@@H]12 [CP-DM-2-11-7, 2-methoxy-6-(4-nitrobenzyloxy)iminoestradiol] | no detectable effects on the shape of the HASM cells | significantly reduced levels of migration | <4.0 | 116.6 ± 6.6 (14) % control | no detectable effect | 26±12 |  |  |  |
| COc1cc2c(cc1O)C(=NOCc1ccc([N+](=O)[O-])cc1)C[C@@H]1[C@@H]2CC[C@]2(C)C(=NO)CC[C@@H]12 [CP-DM-3-91, 2-methoxy-6-(4-nitrobenzyloxy)iminoestrone-17-oxime] |  |  |  | 111.1 ± 10.9 (4) % control |  | 68±10 |  |  |  |
| COc1cc2c(cc1O)CC[C@@H]1[C@@H]2CC[C@]2(C)[C@@H](O)CC[C@@H]12 [2-methoxyestradiol, reference compound] |  | significantly reduced levels of migration | 4.8 |  |  |  | caused extensive rounding of cells | 87.5 ± 13.8 (4) % control | effective inhibitor |
